One assay has as its system CHO cells (cell line A). To be noted: fresh Medium A supplemented with formate at 0, 2, 4 and 6 mM, growth monitored for 5 or 6 days, FIG. 3B. As to the method: CHO cells (cell line A or cell line B) producing a recombinant antibody were inoculated at low cell densities (0.1 E6 cells/mL) in various conditions in triplicates in 6-well plate cultures. The working volume for each well on day 0 was 4 mL. Cell line A was inoculated either in fresh Medium A or fresh Medium A supplemented with formate at various concentrations. Cell line B was inoculated either in fresh Medium A or fresh Medium A supplemented with glycerol at various concentrations. The concentrations tested for formate were [0, 2, 4 and 6 mM] and for glycerol were [0, 2 and 4 mM]. The 6-well plates were incubated on a shaking platform in 36.5C and 5% carbon dioxide. Cell growth in all the conditions was monitored for 5 or 6 days.

The test system of a further assay is CHO cells (cell line B). Kind of assay: Effect of glycerol on growth (viable cell density) of CHO cells in 6-well plate culture. The class given is cell-based, Chinese hamster. Conditions: fresh Medium A supplemented with glycerol at 0, 2 and 4 mM, growth monitored for 5 or 6 days, FIG. 3A.

Read-outs that look alike come from different tables or passages of the source.

As to `O=CO` [formate], the entries for the “concentration at which cell growth was suppressed” value with CHO cells (cell line A) and with CHO cells (cell line A) (listed as Formate) were “higher than 2 mM” and at least 2 mM, respectively.
With `OCC(O)CO` [glycerol], the “concentration at which cell growth was suppressed” value is recorded as “higher than 2 mM” in the assay with CHO cells (cell line B) and at least 2 mM in the assay on CHO cells (cell line B) (listed as Glycerol).

For the origin of these results see US20220073942A1, “Cells with reduced inhibitor production and methods of use thereof” (PFIZER INC., priority 2018, published 2022).
